Test results: patent US12606544B2, “JAK1 selective kinase inhibitor” (DIZAL (JIANGSU) PHARMACEUTICAL CO., LTD., priority 2019, dated 2026)
pIC50: −log10 of the molar value.

Key:
[1] = Metabolic stability in human liver microsome; type: in vitro ADME; details: human, pooled human liver microsomes, pH 7.4, 1 μM compound, 1 mg/mL microsomes, NADPH
Method: (§1) Rat hepatocytes in male gender and human liver microsome were obtained from commercial vendors (e.g., BioreclamationIVT) and stored at −150° C. prior to use.
For metabolic stability assay with human liver microsome, 1 μM of each test compound was incubated with 1 mg/mL of microsomes (Pooled HLM with 20 mg/ml protein cone) at 37° C. in 250 μL of buffer (100 mM phosphate buffer, pH-7.4) containing 1 mM NADPH solution. […] was quenched with 5 volumes chilled acetonitrile at different time points 0, 0.5, 5, 10, 15, 20 and 30 min in a fresh 96 well plate. The quench plate was centrifuged at 4000 rpm for 15 min. 40 μL of supernatant was diluted to 200 μL with pure water and analyzed using LC-MS/MS. […]

[2] = Metabolic stability in rat hepatocytes; type: in vitro ADME; details: 1 μM compound, male rat hepatocytes
Method: as §1
For metabolic stability assay with rat heptatocytes, vials of cryopreserved hepatocytes or microsome were removed from storage, ensured that vials remain at cryogenic temperatures. 1 μM of each test compound (in Acetonitrile; 0.01% DMSO) was incubated with 250 μL of hepatocyte cells (1×10^6 cells/ml) in a 96 deep well plate. […] 40 μL of supernatant was diluted to 200 μL with pure water and analyzed using LC-MS/MS.
In vitro hepatocyte clearance was estimated based on determination of elimination half-life (T1/2) of compounds disappearance from their initial concentrations. Peak area ratios of each compound (test or control) to IS was calculated. Ln (% Control) versus Incubation Time (min) curve was plotted, and the slope of a linear fitting line was calculated. Drug elimination rate constant k (min−1), T1/2 (min), and in vitro intrinsic clearance CLint (μL/min/E6) was calculated according to the following equations: k=−slope T1/2=0.693/k CLint=k/Chep Where Chep (cells×μL^−1) is the cell concentration in the incubation system.

phosphorylation of STAT6 = experiment: Cellular p-STAT6 assay, IL-13 stimulated THP-1 cells, flow cytometry; type: cell-based; details: Homo sapiens, THP-1, THP-1 cells, IL-13 10 ng/ml; read-out: pSTAT6 IC50
Outline: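 THP-1 cells (2×10^5/well, RPMI1640 + 10% FBS) preincubated 60 min at room temperature with compound (1 μM to 0.3 nM), then stimulated 30 min with IL-13 at 10 ng/ml. Fixed, methanol-permeabilized cells stained with PE anti-pSTAT6 and read by flow cytometry; IC50 from dose-response curves.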

JAK2 = biological target: T1, JAK2 (Homo sapiens, UniProt O60674); experiment: Lance Ultra Kinase Assay, recombinant JAK2; type: biochemical; details: 5 mM ATP
T1 construct: purchased Carna Biosciences
T1 sequence (O60674 whole entry): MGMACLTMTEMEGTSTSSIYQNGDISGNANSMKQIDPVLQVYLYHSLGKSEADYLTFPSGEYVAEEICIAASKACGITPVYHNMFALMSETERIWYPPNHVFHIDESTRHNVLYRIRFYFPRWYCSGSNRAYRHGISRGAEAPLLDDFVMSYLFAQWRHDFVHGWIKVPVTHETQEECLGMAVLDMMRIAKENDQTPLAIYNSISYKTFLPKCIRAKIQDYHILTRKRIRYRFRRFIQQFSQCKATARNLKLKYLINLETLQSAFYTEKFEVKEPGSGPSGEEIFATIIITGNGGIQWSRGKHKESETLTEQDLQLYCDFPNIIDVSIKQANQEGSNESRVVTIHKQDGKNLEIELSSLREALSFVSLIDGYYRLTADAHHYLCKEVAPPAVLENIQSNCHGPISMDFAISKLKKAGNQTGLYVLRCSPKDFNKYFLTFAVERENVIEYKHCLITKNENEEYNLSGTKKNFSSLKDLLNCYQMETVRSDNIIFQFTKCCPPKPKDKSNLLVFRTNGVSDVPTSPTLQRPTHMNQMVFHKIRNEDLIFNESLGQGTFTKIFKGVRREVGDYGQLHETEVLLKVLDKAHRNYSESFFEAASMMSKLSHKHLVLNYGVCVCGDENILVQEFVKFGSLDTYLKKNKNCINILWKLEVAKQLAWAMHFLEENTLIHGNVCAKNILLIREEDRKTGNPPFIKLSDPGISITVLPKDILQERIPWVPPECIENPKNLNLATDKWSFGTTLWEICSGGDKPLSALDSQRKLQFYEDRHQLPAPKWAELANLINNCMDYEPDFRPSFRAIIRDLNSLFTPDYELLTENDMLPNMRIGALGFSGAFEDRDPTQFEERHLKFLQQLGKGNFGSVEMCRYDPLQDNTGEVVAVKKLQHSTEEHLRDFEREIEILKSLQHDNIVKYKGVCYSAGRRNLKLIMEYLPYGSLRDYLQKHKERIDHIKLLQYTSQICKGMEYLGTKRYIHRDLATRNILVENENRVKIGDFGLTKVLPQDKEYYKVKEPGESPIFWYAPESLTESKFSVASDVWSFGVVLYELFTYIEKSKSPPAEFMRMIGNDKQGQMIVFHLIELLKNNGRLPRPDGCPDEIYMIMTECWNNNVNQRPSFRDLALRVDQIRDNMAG
Outline: (§2)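 Each recombinant kinase preincubated with or without compound 15 min at room temperature, then reaction started with 5 mM ATP and substrate peptide for 60 min. Stopped with EDTA-containing detection mix; TR-FRET read at ex 320 nm, 665/615 nm emission ratio taken as kinase activity.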

TYK2 = biological target: T2, TYK2 (Homo sapiens, UniProt P29597); experiment: Lance Ultra Kinase Assay, recombinant TYK2; type: biochemical; details: 5 mM ATP
T2 construct: purchased Carna Biosciences
T2 sequence (P29597 whole entry): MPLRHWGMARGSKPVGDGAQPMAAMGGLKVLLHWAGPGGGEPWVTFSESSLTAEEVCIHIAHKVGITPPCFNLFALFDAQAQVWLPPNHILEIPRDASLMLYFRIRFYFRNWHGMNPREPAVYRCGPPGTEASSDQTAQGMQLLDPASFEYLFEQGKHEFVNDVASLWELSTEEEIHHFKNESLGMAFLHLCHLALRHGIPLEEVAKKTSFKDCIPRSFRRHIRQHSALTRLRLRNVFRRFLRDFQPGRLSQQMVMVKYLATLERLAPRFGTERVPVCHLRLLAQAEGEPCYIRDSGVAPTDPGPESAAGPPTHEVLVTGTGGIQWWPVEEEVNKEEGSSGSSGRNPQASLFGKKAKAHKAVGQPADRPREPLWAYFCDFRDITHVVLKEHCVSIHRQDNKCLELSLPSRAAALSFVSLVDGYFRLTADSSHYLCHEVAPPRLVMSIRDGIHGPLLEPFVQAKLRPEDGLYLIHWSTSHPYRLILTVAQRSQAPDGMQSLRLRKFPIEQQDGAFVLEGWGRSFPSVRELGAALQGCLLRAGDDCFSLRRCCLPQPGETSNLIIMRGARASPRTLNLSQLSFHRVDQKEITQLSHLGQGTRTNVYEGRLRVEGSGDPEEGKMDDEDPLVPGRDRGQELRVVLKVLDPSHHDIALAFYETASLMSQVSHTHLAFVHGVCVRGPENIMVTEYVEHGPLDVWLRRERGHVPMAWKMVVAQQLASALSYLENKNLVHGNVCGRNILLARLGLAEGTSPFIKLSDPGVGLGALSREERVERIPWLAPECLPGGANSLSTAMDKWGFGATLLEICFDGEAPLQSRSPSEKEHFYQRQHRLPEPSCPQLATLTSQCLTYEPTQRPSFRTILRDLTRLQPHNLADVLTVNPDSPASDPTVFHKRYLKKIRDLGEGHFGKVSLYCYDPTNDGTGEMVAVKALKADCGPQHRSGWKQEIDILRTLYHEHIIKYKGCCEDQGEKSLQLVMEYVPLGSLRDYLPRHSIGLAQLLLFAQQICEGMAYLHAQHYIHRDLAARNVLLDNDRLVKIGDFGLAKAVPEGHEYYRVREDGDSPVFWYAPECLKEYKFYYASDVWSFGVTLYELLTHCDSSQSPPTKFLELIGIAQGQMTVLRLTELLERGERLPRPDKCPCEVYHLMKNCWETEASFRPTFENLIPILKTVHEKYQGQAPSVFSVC
Outline: as §2

JAK1 = biological target: T3, JAK1 (Homo sapiens, UniProt P23458); experiment: Lance Ultra Kinase Assay, recombinant JAK1; type: biochemical; details: 5 mM ATP
T3 construct: purchased Carna Biosciences
T3 sequence (P23458 whole entry): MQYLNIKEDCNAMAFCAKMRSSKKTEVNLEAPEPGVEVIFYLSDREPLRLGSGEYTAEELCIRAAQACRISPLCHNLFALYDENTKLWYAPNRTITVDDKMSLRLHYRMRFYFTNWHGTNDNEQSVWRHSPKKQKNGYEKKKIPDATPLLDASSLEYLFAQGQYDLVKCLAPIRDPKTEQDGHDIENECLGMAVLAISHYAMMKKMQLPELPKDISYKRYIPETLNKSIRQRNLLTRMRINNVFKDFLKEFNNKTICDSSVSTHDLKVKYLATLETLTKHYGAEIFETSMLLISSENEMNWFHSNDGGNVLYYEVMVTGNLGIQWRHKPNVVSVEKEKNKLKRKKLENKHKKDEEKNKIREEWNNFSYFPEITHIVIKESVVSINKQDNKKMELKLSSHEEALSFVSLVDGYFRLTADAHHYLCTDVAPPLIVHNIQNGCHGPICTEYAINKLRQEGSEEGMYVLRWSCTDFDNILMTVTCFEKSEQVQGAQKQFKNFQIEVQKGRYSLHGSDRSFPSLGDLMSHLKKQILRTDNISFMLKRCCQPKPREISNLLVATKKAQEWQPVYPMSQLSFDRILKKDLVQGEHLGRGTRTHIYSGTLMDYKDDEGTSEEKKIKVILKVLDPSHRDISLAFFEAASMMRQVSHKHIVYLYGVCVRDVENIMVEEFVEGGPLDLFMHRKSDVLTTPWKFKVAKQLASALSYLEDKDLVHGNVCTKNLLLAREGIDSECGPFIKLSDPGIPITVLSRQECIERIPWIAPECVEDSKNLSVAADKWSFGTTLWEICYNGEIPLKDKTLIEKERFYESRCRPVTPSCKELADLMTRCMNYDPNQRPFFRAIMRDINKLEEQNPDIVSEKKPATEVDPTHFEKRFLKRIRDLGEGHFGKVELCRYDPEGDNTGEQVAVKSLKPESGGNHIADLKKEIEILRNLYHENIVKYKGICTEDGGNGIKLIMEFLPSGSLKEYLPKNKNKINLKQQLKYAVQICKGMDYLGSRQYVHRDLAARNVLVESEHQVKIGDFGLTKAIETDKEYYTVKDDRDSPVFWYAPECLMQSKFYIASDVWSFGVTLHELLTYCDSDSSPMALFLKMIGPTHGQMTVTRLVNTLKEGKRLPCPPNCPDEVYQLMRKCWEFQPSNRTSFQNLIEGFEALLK
Outline: as §2

JAK3 = biological target: T4, JAK3 (Homo sapiens, UniProt P52333); experiment: Lance Ultra Kinase Assay, recombinant JAK3; type: biochemical; details: 5 mM ATP
T4 construct: purchased Carna Biosciences
T4 sequence (P52333 1-1124): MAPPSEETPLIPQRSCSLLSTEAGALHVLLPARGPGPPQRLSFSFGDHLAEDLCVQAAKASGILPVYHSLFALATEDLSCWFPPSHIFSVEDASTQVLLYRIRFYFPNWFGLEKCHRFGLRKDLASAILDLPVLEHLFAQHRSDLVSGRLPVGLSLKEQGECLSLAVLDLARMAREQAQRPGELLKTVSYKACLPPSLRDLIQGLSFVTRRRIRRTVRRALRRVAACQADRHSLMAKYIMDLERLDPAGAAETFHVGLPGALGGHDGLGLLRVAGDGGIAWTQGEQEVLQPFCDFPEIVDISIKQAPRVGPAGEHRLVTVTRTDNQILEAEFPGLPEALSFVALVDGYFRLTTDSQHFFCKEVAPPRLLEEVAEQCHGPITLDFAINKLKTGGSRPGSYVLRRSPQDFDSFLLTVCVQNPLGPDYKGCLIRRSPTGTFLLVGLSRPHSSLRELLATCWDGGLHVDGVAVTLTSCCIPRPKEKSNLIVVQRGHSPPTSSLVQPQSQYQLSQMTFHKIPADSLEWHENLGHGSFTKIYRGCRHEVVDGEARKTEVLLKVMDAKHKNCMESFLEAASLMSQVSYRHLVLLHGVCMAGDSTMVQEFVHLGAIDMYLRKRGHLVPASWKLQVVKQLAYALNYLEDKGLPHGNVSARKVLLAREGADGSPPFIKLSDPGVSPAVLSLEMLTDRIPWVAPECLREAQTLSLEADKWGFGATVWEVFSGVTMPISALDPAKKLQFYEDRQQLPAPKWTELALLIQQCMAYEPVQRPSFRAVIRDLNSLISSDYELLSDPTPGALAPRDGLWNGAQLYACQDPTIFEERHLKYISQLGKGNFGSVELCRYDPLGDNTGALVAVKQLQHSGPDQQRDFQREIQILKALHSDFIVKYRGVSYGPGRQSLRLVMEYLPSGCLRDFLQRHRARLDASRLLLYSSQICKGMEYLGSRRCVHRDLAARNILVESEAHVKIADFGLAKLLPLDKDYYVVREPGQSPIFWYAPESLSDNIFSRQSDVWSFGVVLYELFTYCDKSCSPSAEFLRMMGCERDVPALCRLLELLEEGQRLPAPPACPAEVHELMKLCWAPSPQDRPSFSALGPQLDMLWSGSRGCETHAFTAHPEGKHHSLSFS
Outline: as §2

microsomal CLint at 1 μM [1] [µL/min/mg]	Rat Hepatocyte CLint [2] [μL/min/10^6 cells]	pIC50 (phosphorylation of STAT6)	pIC50 (JAK2)	pIC50 (TYK2)	pIC50 (JAK1)	pIC50 (JAK3)	Compound
> 300	226.4	8.14	6.33	5.42	9.77	< 5.00	COC[C@H](C(=O)Nc1cccc2c(-c3nc(Nc4ccc(C(=O)OC)nc4)ncc3F)c[nH]c12)N1CCN(C)CC1 [Example 12, methyl (R)-5-((5-fluoro-4-(7-(3-methoxy-2-(4-methylpiperazin-1-yl)propanamido)-1H-indol-3-yl)pyrimidin-2-yl)amino)picolinate]
9.2	2.2	7.95	6.70	5.69	9.59	< 5.00	COC[C@H](C(=O)Nc1cccc2c(-c3nc(Nc4ccc5c(c4)C(=O)NCC5)ncc3F)c[nH]c12)N1CCN(C)CC1 [Example 35, (R)-N-(3-(5-fluoro-2-((1-oxo-1,2,3,4-tetrahydroisoquinolin-7-yl)amino)pyrimidin-4-yl)-1H-indol-7-yl)-3-methoxy-2-(4-methylpiperazin-1-yl)propanamide]
3	42.1	8.13	6.86	5.70	9.44	< 5.00	COC[C@H](C(=O)Nc1cccc2c(-c3nc(Nc4ccc(OCCO)nc4)ncc3F)c[nH]c12)N1CCN(C)CC1 [Example 16, (R)-N-(3-(5-fluoro-2-((6-(2-hydroxyethoxy)pyridin-3-yl)amino)pyrimidin-4-yl)-1H-indol-7-yl)-3-methoxy-2-(4-methylpiperazin-1-yl)propanamide]
11.7	6.3	7.94	7.17	6.00	9.68	5.32	COC[C@H](C(=O)Nc1cccc2c(-c3nc(Nc4ccc5c(c4)NC(=O)C5)ncc3F)c[nH]c12)N1CCN(C)CC1 [Example 37, (R)-N-(3-(5-fluoro-2-((2-oxoindolin-6-yl)amino)pyrimidin-4-yl)-1H-indol-7-yl)-3-methoxy-2-(4-methylpiperazin-1-yl)propanamide]
> 300	68.0	8.14	7.70	5.84	9.72	< 5.00	COC[C@H](C(=O)Nc1cccc2c(-c3nc(Nc4ccnc(CCC(=O)OC)c4)ncc3F)c[nH]c12)N1CCN(C)CC1 [Example 15, methyl (R)-3-(4-((5-fluoro-4-(7-(3-methoxy-2-(4-methylpiperazin-1-yl)propanamido)-1H-indol-3-yl)pyrimidin-2-yl)amino)pyridin-2-yl)propanoate]
10.7	>300	7.76	5.65	< 5.00	6.88	< 5.00	COC[C@H](C(=O)Nc1cccc2c(-c3nc(Nc4ccc(CO)cn4)ncc3F)c[nH]c12)N1CCN(C)CC1 [Example 59, (R)-N-(3-(5-fluoro-2-((5-(hydroxymethyl)pyridin-2-yl)amino)pyrimidin-4-yl)-1H-indol-7-yl)-3-methoxy-2-(4-methylpiperazin-1-yl)propanamide]
45.2	2.7	7.87	6.88	5.89	9.85	< 5.00	COC[C@H](C(=O)Nc1cccc2c(-c3nc(Nc4ccc5nc[nH]c5c4)ncc3F)c[nH]c12)N1CCN(C)CC1 [Example 45, (R)-N-(3-(2-((1H-benzo[d]imidazol-6-yl)amino)-5-fluoropyrimidin-4-yl)-1H-indol-7-yl)-3-methoxy-2-(4-methylpiperazin-1-yl)propanamide]
57.2	4.5	8.12	7.37	5.92	9.74	5.11	COC[C@H](C(=O)Nc1cccc2c(-c3nc(Nc4ccc5c(C)n[nH]c5c4)ncc3F)c[nH]c12)N1CCN(C)CC1 [Example 17, (R)-N-(3-(5-fluoro-2-((3-methyl-1H-indazol-6-yl)amino)pyrimidin-4-yl)-1H-indol-7-yl)-3-methoxy-2-(4-methylpiperazin-1-yl)propanamide]
21.9	4.0	7.74	7.66	6.29	9.85	< 5.00	COC[C@H](C(=O)Nc1cccc2c(-c3nc(Nc4ccc5c(c4)C(=O)OCC5)ncc3F)c[nH]c12)N1CCN(C)CC1 [Example 64, (R)-N-(3-(5-fluoro-2-((1-oxoisochroman-7-yl)amino)pyrimidin-4-yl)-1H-indol-7-yl)-3-methoxy-2-(4-methylpiperazin-1-yl)propanamide]
27.9	17.4	7.82	6.74	5.78	9.66	< 5.00	COC[C@H](C(=O)Nc1cccc2c(-c3nc(Nc4cnn(-c5ccccc5CO)c4)ncc3F)c[nH]c12)N1CCN(C)CC1 [Example 53, (R)-N-(3-(5-fluoro-2-((1-(2-(hydroxymethyl)phenyl)-1H-pyrazol-4-yl)amino)pyrimidin-4-yl)-1H-indol-7-yl)-3-methoxy-2-(4-methylpiperazin-1-yl)propanamide]
69.1	1.6	7.85	6.42	5.77	9.57	< 5.00	COC[C@H](C(=O)Nc1cccc2c(-c3nc(Nc4ccc(NC(C)=O)nc4)ncc3F)c[nH]c12)N1CCN(C)CC1 [Example 48, (R)-N-(3-(2-((6-acetamidopyridin-3-yl)amino)-5-fluoropyrimidin-4-yl)-1H-indol-7-yl)-3-methoxy-2-(4-methylpiperazin-1-yl)propanamide]
